Here are results for 21 molecules from US12012392B2, “Sulfonamide carboxamide compounds” (Inflazome Limited, priority 2017, dated 2024).

In assay [1] the target is T1, NLRP3 (Homo sapiens, UniProt Q96P20). The assay can be described thus: THP-1 cells pyroptosis assay. Set-up: Seed THP-1 cells (25,000 cells/well) containing 1.0 μg/ml LPS; host or cells: THP-1 cells, LPS-primed, nigericin-stimulated. The following applies: LPS 1 μg/ml, nigericin 5 μM, resazurin read-out. In kind it is cell-based. On the procedure: THP-1 cells (ATCC #TIB-202) were grown in RPMI containing L-glutamine (Gibco #11835) supplemented with 1 mM sodium pyruvate (Sigma #S8636) and penicillin (100 units/ml)/streptomycin (0.1 mg/ml) (Sigma #P4333) in 10% Fetal Bovine Serum (FBS) (Sigma #F0804). The cells were routinely passaged and grown to confluency (˜10^6 cells/ml). On the day of the experiment, THP-1 cells were harvested and resuspended into RPMI medium (without FBS). The cells were then counted and viability (>90%) checked by Trypan blue (Sigma #T8154). Appropriate dilutions were made to give a concentration of 625,000 cells/ml. To this diluted cell solution was added LPS (Sigma #L4524) to give a 1 μg/ml Final Assay Concentration (FAC). 40 μl of the final preparation was aliquoted into each well of a 96-well plate. The plate thus prepared was used for compound screening.
The following method step-by-step assay was followed for compound screening. • 1. Seed THP-1 cells (25,000 cells/well) containing 1.0 μg/ml LPS in 40 μl of RPMI medium (without FBS) in 96-well, black walled, clear bottom cell culture plates coated with poly-D-lysine (VWR #734-0317) • 2. Add 5 μl compound (8 points half-log dilution, with 10 μM top dose) or vehicle (DMSO 0.1% FAC) to the appropriate wells • 3. Incubate for 3 hrs at 37° C. and 5% CO2 • 4. Add 5 μl nigericin (Sigma #N7143) (FAC 5 μM) to all wells • 5. Incubate for 1 hr at 37° C. and 5% CO2 • 6. At the end of the incubation period, spin plates at 300×g for 3 mins and remove supernatant • 7. Then add 50 μl of resazurin (Sigma #R7017) (FAC 100 μM resazurin in RPMI medium without FBS) and incubate plates for a further 1-2 hrs at 37° C. and 5% CO2 • 8. Plates were read in an Envision reader at Ex 560 nm and Em 590 nm • 9. IC50 data is fitted to a non-linear regression equation (log inhibitor vs response-variable slope 4-parameters) 96-Well Plate Map

Assay [2] deals with T1, NLRP3. The assay can be described thus: Human whole blood IL1β release assay. In kind it is cell-based. Details: Plate out 80 μl of whole blood containing 1 μg/ml of LPS; from tissue; host or cells: human whole blood from healthy donors, LPS-primed, nigericin-stimulated. The conditions noted are these: LPS 1 μg/ml, nigericin 10 μM, IL-1β AlphaLisa, read-out: HWB IC50. As to the method:
For systemic delivery, the ability to inhibit NLRP3 when the compounds are present within the bloodstream is of great importance. For this reason, the NLRP3 inhibitory activity of a number of compounds in human whole blood was investigated in accordance with the following protocol.
Human whole blood in Li-heparin tubes was obtained from healthy donors from a volunteer donor panel. • 1. Plate out 80 μl of whole blood containing 1 μg/ml of LPS in 96-well, clear bottom cell culture plate (Corning #3585) • 2. Add […] compound (8 points half-log dilution with 10 μM top dose) or vehicle (DMSO 0.1% FAC) to the appropriate wells • 3. Incubate for 3 hrs at 37° C., 5% CO2 • 4. Add 10 μl Nigericin (Sigma #N7143) (10 μM FAC) to all wells • 5. Incubate for 1 hr at 37° C., 5 CO2 • 6. At the end of the incubation period, spin plates at 300×g for 5 mins to pellet cells and remove 20 μl of supernatant and add to 96-well v-bottom plates for […] analysis (note: these plates containing the supernatants can be stored at −80° C. to be analysed at a later date) • 7. IL-1β was measured according to the manufacturer protocol (Perkin Elmer-AlphaLisa IL-1 Kit AL220F-5000) • 8. IC50 data is fitted to anon-linear regression equation (log inhibitor vs response-variable slope 4-parameters)

T1 sequence (Q96P20 whole entry): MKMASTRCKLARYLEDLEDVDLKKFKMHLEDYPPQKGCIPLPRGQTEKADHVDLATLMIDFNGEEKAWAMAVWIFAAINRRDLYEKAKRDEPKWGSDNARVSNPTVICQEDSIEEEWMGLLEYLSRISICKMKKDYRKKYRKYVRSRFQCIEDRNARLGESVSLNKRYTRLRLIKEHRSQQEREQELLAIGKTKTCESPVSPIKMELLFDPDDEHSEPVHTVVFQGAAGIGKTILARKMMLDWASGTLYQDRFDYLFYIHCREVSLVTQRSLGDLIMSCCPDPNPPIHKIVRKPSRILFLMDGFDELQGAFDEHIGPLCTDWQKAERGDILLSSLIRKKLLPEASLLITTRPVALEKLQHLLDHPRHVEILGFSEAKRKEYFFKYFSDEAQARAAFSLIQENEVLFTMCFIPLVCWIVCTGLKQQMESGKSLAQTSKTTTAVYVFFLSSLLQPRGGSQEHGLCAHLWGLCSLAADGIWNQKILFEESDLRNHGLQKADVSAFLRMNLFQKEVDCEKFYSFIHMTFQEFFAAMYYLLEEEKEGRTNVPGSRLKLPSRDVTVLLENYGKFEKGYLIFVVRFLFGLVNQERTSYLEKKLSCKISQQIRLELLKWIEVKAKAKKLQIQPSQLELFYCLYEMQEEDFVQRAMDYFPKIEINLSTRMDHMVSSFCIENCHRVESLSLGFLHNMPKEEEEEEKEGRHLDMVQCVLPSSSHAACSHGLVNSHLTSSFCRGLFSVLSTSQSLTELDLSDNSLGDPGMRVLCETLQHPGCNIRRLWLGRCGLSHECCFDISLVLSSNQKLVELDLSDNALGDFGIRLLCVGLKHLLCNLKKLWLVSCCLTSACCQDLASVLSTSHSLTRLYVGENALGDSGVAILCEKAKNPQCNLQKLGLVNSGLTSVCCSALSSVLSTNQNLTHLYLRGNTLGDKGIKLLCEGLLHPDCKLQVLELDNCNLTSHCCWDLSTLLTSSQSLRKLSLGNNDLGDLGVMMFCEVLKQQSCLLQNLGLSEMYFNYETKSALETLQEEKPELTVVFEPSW

For the molecule `O=C(Nc1c2c(cc3c1CCC3)CCC2)NS(=O)(=O)c1ccn(C2COC2)n1` [Example 12, N-((1,2,3,5,6,7-Hexahydro-s-indacen-4-yl)carbamoyl)-1-(oxetan-3-yl)-1H-pyrazole-3-sulfonamide], the IC50 on NLRP3 [1] was in the range of 160 to 640 nM; on NLRP3 [2], 800 to 1600 nM.

On to `COC(C)(C)Cn1ccc(S(=O)(=O)NC(=O)Nc2c3c(cc4c2CCC4)CCC3)n1` [Example 14, N-((1,2,3,5,6,7-Hexahydro-s-indacen-4-yl)carbamoyl)-1-(2-methoxy-2-methylpropyl)-1H-pyrazole-3-sulfonamide], for which the IC50 at NLRP3 [1] is less than 40 nM; on NLRP3 [2], 400 to 800 nM.

Turning to `C[C@@H](CO)n1ccc(S(=O)(=O)NC(=O)Nc2c3c(cc4c2CCC4)CCC3)n1` [Example 15, (S)—N-((1,2,3,5,6,7-Hexahydro-s-indacen-4-yl)carbamoyl)-1-(1-hydroxypropan-2-yl)-1H-pyrazole-3-sulfonamide], the IC50 at NLRP3 [1] lay in the range of 40 to 160 nM; on NLRP3 [2], 800 to 1600 nM.

With `COC(C)(C)Cn1ccc(S(=O)(=O)NC(=O)Nc2c(C(C)C)cc(F)cc2C(C)C)n1` [Example 17, N-((4-Fluoro-2,6-diisopropylphenyl)carbamoyl)-1-(2-methoxy-2-methylpropyl)-1H-pyrazole-3-sulfonamide], the IC50 at NLRP3 [1] is 640 to 2560 nM; at NLRP3 [2], 3200 to 10000 nM.

As to `CC(C)c1cc(F)cc(C(C)C)c1NC(=O)NS(=O)(=O)c1ccn(CC(C)(C)O)n1` [Example 18, N-((4-Fluoro-2,6-diisopropylphenyl)carbamoyl)-1-(2-hydroxy-2-methylpropyl)-1H-pyrazole-3-sulfonamide], the IC50 was 640 to 2560 nM on NLRP3 [1] and 1600 to 3200 nM at NLRP3 [2].

Turning to `CC(C)c1cc(Cl)cc(C(C)C)c1NC(=O)NS(=O)(=O)c1ccn(CC(C)(C)O)n1` [Example 19, N-((4-Chloro-2,6-diisopropylphenyl)carbamoyl)-1-(2-hydroxy-2-methylpropyl)-1H-pyrazole-3-sulfonamide], the IC50 lay in the range of 640 to 2560 nM at NLRP3 [1] and 3200 to 10000 nM at NLRP3 [2].

Take `CC(C)(CO)n1ccc(S(=O)(=O)NC(=O)Nc2c3c(cc4c2CCC4)CCC3)n1` [Example 20, N-((1,2,3,5,6,7-Hexahydro-s-indacen-4-yl)carbamoyl)-1-(1-hydroxy-2-methylpropan-2-yl)-1H-pyrazole-3-sulfonamide]: the IC50 on NLRP3 [1] was in the range of 40 to 160 nM; on NLRP3 [2], 800 to 1600 nM.

Take `CC[C@H](O)Cn1ccc(S(=O)(=O)NC(=O)Nc2c3c(cc4c2CCC4)CCC3)n1` [Example 21, (S)—N-((1,2,3,5,6,7-Hexahydro-s-indacen-4-yl)carbamoyl)-1-(2-hydroxybutyl)-1H-pyrazole-3-sulfonamide]: the IC50 at NLRP3 [1] is 40 to 160 nM; at NLRP3 [2], 800 to 1600 nM.

With `CC[C@@H](O)Cn1ccc(S(=O)(=O)NC(=O)Nc2c3c(cc4c2CCC4)CCC3)n1` [Example 25, (R)—N-((1,2,3,5,6,7-Hexahydro-s-indacen-4-yl)carbamoyl)-1-(2-hydroxybutyl)-1H-pyrazole-3-sulfonamide], the values for the IC50 on NLRP3 [1] and at NLRP3 [2] were 160 to 640 nM and 800 to 1600 nM, respectively.

As to `O=C(Nc1c2c(cc3c1CCC3)CCC2)NS(=O)(=O)c1ccn(CC(O)C(F)(F)F)n1` (stereo not drawn) [Example 30, N-((1,2,3,5,6,7-Hexahydro-s-indacen-4-yl)carbamoyl)-1-(3,3,3-trifluoro-2-hydroxypropyl)-1H-pyrazole-3-sulfonamide], the IC50 at NLRP3 [1] lay in the range of 40 to 160 nM; on NLRP3 [2], 800 to 1600 nM.

Regarding `O=C(Nc1c2c(cc3c1CCC3)CCC2)NS(=O)(=O)c1ccn(C2CCOCC2)n1` [Example 31, N-((1,2,3,5,6,7-Hexahydro-s-indacen-4-yl)carbamoyl)-1-(tetrahydro-2H-pyran-4-yl)-1H-pyrazole-3-sulfonamide], the IC50 on NLRP3 [1] was 160 to 640 nM; at NLRP3 [2], 1600 to 3200 nM.

As to `CC(C)c1cc(Cl)cc(C(C)C)c1NC(=O)NS(=O)(=O)c1ccn(C2CCOCC2)n1` [Example 32, N-((4-Chloro-2,6-diisopropylphenyl)carbamoyl)-1-(tetrahydro-2H-pyran-4-yl)-1H-pyrazole-3-sulfonamide], the IC50 on NLRP3 [1] was in the range of 640 to 2560 nM; on NLRP3 [2] it was 3200 to 10000 nM.

For the molecule `C[C@@H](O)Cn1ncc(S(=O)(=O)NC(=O)Nc2c3c(cc4c2CCC4)CCC3)n1` [Example 33, (R)—N-((1,2,3,5,6,7-Hexahydro-s-indacen-4-yl)carbamoyl)-2-(2-hydroxypropyl)-2H-1,2,3-triazole-4-sulfonamide], the figures for the IC50 at NLRP3 [1] and at NLRP3 [2] were 160 to 640 nM and 800 to 1600 nM, respectively.

Take `O=C(Nc1c2c(cc3c1CCC3)CCC2)NS(=O)(=O)c1ccn(C2CC(O)C2)n1` (stereo not drawn) [Example 34, N-((1,2,3,5,6,7-Hexahydro-s-indacen-4-yl)carbamoyl)-1-(3-hydroxycyclobutyl)-1H-pyrazole-3-sulfonamide]: the results for the IC50 at NLRP3 [1] and on NLRP3 [2] were 160 to 640 nM and 800 to 1600 nM, respectively.

As for `COC1(c2cc(S(=O)(=O)NC(=O)Nc3c(-c4cccnc4)cc(F)c4c3CCC4)nn2C)COC1` [Example 35, N-((7-Fluoro-5-(pyridin-3-yl)-2,3-dihydro-1H-inden-4-yl)carbamoyl)-5-(3-methoxyoxetan-3-yl)-1-methyl-1H-pyrazole-3-sulfonamide], the IC50 fell in the range of 160 to 640 nM on NLRP3 [1] and 800 to 1600 nM at NLRP3 [2].

For the molecule `C[C@@H](O)Cn1cnc(S(=O)(=O)NC(=O)Nc2c3c(cc4c2CCC4)CCC3)n1` [Example 36, (R)—N-((1,2,3,5,6,7-Hexahydro-s-indacen-4-yl)carbamoyl)-1-(2-hydroxypropyl)-1H-1,2,4-triazole-3-sulfonamide], the IC50 at NLRP3 [1] lay within 160 to 640 nM; on NLRP3 [2], 400 to 800 nM.

Take `CC(C)c1cc(F)cc(-c2cccnc2)c1NC(=O)NS(=O)(=O)c1ccn(C[C@@H](C)O)n1` [Example 37, (R)—N-((4-Fluoro-2-isopropyl-6-(pyridin-3-yl)phenyl)carbamoyl)-1-(2-hydroxypropyl)-1H-pyrazole-3-sulfonamide]: the IC50 at NLRP3 [1] was 160 to 640 nM; at NLRP3 [2], less than 400 nM.

As to `COC1(c2cc(S(=O)(=O)NC(=O)Nc3c4c(cc5c3CCC5)CCC4)nn2C(C)(C)C)COC1` [Example 39, 1-(tert-Butyl)-N-((1,2,3,5,6,7-hexahydro-s-indacen-4-yl)carbamoyl)-5-(3-methoxyoxetan-3-yl)-1H-pyrazole-3-sulfonamide], the IC50 at NLRP3 [1] lay in the range of 40 to 160 nM; on NLRP3 [2], 1600 to 3200 nM.

Consider `COc1cc(-c2cc(F)cc(C(C)C)c2NC(=O)NS(=O)(=O)c2cc(C3(OC)COC3)n(C)n2)ccn1` [Example 40, N-((4-Fluoro-2-isopropyl-6-(2-methoxypyridin-4-yl)phenyl)carbamoyl)-5-(3-methoxyoxetan-3-yl)-1-methyl-1H-pyrazole-3-sulfonamide], for which the IC50 on NLRP3 [1] is 160 to 640 nM; on NLRP3 [2] it was less than 400 nM.

For `CCOC1(c2cc(S(=O)(=O)NC(=O)Nc3c4c(cc5c3CCC5)CCC4)nn2C)COC1` [Example 41, 5-(3-Ethoxyoxetan-3-yl)-N-((1,2,3,5,6,7-hexahydro-s-indacen-4-yl)carbamoyl)-1-methyl-1H-pyrazole-3-sulfonamide], the IC50 at NLRP3 [1] is 40 to 160 nM; on NLRP3 [2], 400 to 800 nM.

As to `CC(C)n1nc(S(=O)(=O)NC(=O)Nc2c3c(cc4c2CCC4)CCC3)cc1C1(O)COC1` [Example 47, N-((1,2,3,5,6,7-Hexahydro-s-indacen-4-yl)carbamoyl)-5-(3-hydroxyoxetan-3-yl)-1-isopropyl-1H-pyrazole-3-sulfonamide], the figures for the IC50 at NLRP3 [1] and at NLRP3 [2] were 40 to 160 nM and 400 to 800 nM, respectively.
